Measured values reported in article PMC11995216, “End-to-End Backbone Cyclization Enhances Passive Permeability of bRo5 Oligomeric Depsipeptides with Nonlinear Size Dependence” (ACS Medicinal Chemistry Letters, 2025).
“And” between values parts separate entries of the source, which are not always exact repeats. Equal values may be shown once. Read-outs that look alike come from different tables or passages of the source. Starred links: 1 amine or outer side, 2 acyl side, 3 side chain; linkers in the order of their positions; H or OH if unused. Non-standard residues stand in square brackets, D forms with d. Residues, ends and D or L forms follow the SMILES beside them. *: point of attachment. X1 = CCCCC[C@H](O[*:1])C(=O)[*:2]; Ahp(2) = CCCCC[C@H](N)C(=O)O; dNMeA = CN[C@H](C)C(=O)O; OBn = c1ccc(CO*)cc1

Assays:
[1] = initial concentration 500 uM, UV detection
[2] = initial concentration 500 uM, UV detection; remark: listed apart in the source
[3] = calculated using Supplement Equation 1, UV detection
[4] = UV detection
in vitro = settings: PAMPA, Papp
[5] = PAMPA, 500 uM
PAMPA [6] = settings: initial concentration 500 uM, UV detection
PAMPA [7] = settings: calculated using Supplement Equation 1, UV detection
PAMPA [8] = test system: PAMPA
PAMPA [9] = settings: initial concentration 500 uM
PAMPA [10] = settings: UV detection

SMILES: CCCCC[C@H](NC(=O)[C@@H](C)N(C)C(=O)[C@H](CCCCC)NC(=O)[C@@H](C)N(C)C(=O)[C@H](CCCCC)NC(=O)[C@@H](C)N(C)C(=O)[C@H](CCCCC)OC(=O)[C@@H](C)NC)C(=O)OCc1ccccc1 (H-[dNMeA][X1][dNMeA][Ahp(2)][dNMeA][Ahp(2)][dNMeA][Ahp(2)]-OBn)
- acceptor concentration after incubation ([1]; Well 1 / [acc], Well 1): 56 µM and 61.7 µM
- acceptor concentration after incubation ([1]; Well 2 / [acc], Well 2): 58.6 µM and 63.1 µM
- acceptor concentration after incubation ([1]; Well 3 / [acc], Well 3): 59.5 µM and 60.4 µM
- acceptor concentration after incubation ([1]; Well 4 / [acc], Well 4): 58.3 µM and 60.3 µM
- acceptor concentration after incubation ([1]; Well 5 / [acc], Well 5): 60.6 µM and 61.4 µM
- donor concentration after incubation ([2]; Well 1 / [donor], Well 1): 396 µM and 397 µM
- donor concentration after incubation ([2]; Well 2 / [donor], Well 2): 375 µM and 395 µM
- donor concentration after incubation ([2]; Well 3 / [donor], Well 3): 387 µM and 374 µM
- donor concentration after incubation ([2]; Well 4 / [donor], Well 4): 382 µM and 368 µM
- donor concentration after incubation ([2]; Well 5 / [donor], Well 5): 376 µM and 377 µM
- %T ([3]; Well 1 / %T, Well 1): 0.52% and 0.53%
- %T ([3]; Well 2 / %T, Well 2): 0.54%
- %T ([3]; Well 3 / %T, Well 3): 0.53% and 0.5%
- %T ([3]; Well 4 / %T, Well 4): 0.5% and 0.52%
- %T ([3]; Well 5 / %T, Well 5): 0.53% and 0.52%
- % recovery ([4]; Well 1 / %R, Well 1): 91% and 92%
- % recovery ([4]; Well 2 / %R, Well 2): 87% and 92%
- % recovery ([4]; Well 3 / %R, Well 3): 90%
- % recovery ([4]; Well 4 / %R, Well 4): 88% and 86%
- % recovery ([4]; Well 5 / %R, Well 5): 87% and 88%

SMILES: CCCCC[C@@H]1OC(=O)[C@@H](C)N(C)C(=O)[C@H](CCCCC)OC(=O)[C@@H](C)N(C)C1=O [Compound C1.2]
- Papp at 500 uM (in vitro): 5.05 ± 0.33 ×10⁻⁶ cm/s
- Papp at 500 uM (in vitro; Ave): 4.78 ×10⁻⁶ cm/s
- LogPapp [5]: -5.30 ± 0.03
- Δ % diffusion [5]: ↑5%
- donor concentration after incubation (PAMPA [6]; Well 1 / [donor], Well 1): 356 µM
- donor concentration after incubation (PAMPA [6]; Well 2 / [donor], Well 2): 347 µM and 350 µM
- donor concentration after incubation (PAMPA [6]; Well 3 / [donor], Well 3): 356 µM and 338 µM
- donor concentration after incubation (PAMPA [6]; Well 4 / [donor], Well 4): 346 µM
- donor concentration after incubation (PAMPA [6]; Well 5 / [donor], Well 5): 339 µM and 346 µM
- %T (PAMPA [7]; Well 1 / %T, Well 1): 0.56% and 0.55%
- %T (PAMPA [7]; Well 2 / %T, Well 2): 0.58% and 0.6%
- %T (PAMPA [7]; Well 3 / %T, Well 3): 0.6% and 0.62%
- %T (PAMPA [7]; Well 4 / %T, Well 4): 0.6% and 0.61%
- %T (PAMPA [7]; Well 5 / %T, Well 5): 0.59% and 0.57%
- Papp (PAMPA [8]; Papp (x 10^-6 cm/s) – ELSD Detection / [row 1], ELSD Detection): 4.36 ×10⁻⁶ cm/s
- Papp (PAMPA [8]; Papp (x 10^-6 cm/s) – ELSD Detection / [row 2], ELSD Detection): 4.48 ×10⁻⁶ cm/s
- Papp (PAMPA [8]; Papp (x 10^-6 cm/s) – ELSD Detection / [row 3], ELSD Detection): 4.72 ×10⁻⁶ cm/s
- Papp (PAMPA [8]; Papp (x 10^-6 cm/s) – ELSD Detection / [row 4], ELSD Detection): 4.83 ×10⁻⁶ cm/s
- Papp (PAMPA [8]; Papp (x 10^-6 cm/s) – ELSD Detection / [row 5], ELSD Detection): 4.34 ×10⁻⁶ cm/s
- Papp (PAMPA [8]; Papp (x 10^-6 cm/s) – ELSD Detection / [row 6], ELSD Detection): 4.86 ×10⁻⁶ cm/s
- Papp (PAMPA [8]; Papp (x 10^-6 cm/s) – ELSD Detection / [row 7], ELSD Detection): 4.88 ×10⁻⁶ cm/s
- Papp (PAMPA [8]; Papp (x 10^-6 cm/s) – ELSD Detection / [row 8], ELSD Detection): 5.23 ×10⁻⁶ cm/s
- Papp (PAMPA [8]; Papp (x 10^-6 cm/s) – ELSD Detection / [row 9], ELSD Detection): 5.23 ×10⁻⁶ cm/s
- Papp (PAMPA [8]; Papp (x 10^-6 cm/s) – ELSD Detection / [row 10], ELSD Detection): 4.89 ×10⁻⁶ cm/s
- Papp (PAMPA [8]; Papp (x 10^-6 cm/s) – UV Detection / [row 1], UV Detection): 4.63 ×10⁻⁶ cm/s
- Papp (PAMPA [8]; Papp (x 10^-6 cm/s) – UV Detection / [row 2], UV Detection): 4.93 ×10⁻⁶ cm/s
- Papp (PAMPA [8]; Papp (x 10^-6 cm/s) – UV Detection / [row 3], UV Detection): 5.16 ×10⁻⁶ cm/s
- Papp (PAMPA [8]; Papp (x 10^-6 cm/s) – UV Detection / [row 4], UV Detection): 5.2 ×10⁻⁶ cm/s
- Papp (PAMPA [8]; Papp (x 10^-6 cm/s) – UV Detection / [row 6], UV Detection): 4.49 ×10⁻⁶ cm/s
- Papp (PAMPA [8]; Papp (x 10^-6 cm/s) – UV Detection / [row 7], UV Detection): 5.18 ×10⁻⁶ cm/s
- Papp (PAMPA [8]; Papp (x 10^-6 cm/s) – UV Detection / [row 8], UV Detection): 5.55 ×10⁻⁶ cm/s
- Papp (PAMPA [8]; Papp (x 10^-6 cm/s) – UV Detection / [row 9], UV Detection): 5.44 ×10⁻⁶ cm/s
- Papp (PAMPA [8]; Papp (x 10^-6 cm/s) – UV Detection / [row 10], UV Detection): 4.87 ×10⁻⁶ cm/s
- Acceptor Concentration (PAMPA [9]; Acceptor Concentration (uM) – ELSD Detection / [row 1], ELSD Detection): 94.8 µM
- Acceptor Concentration (PAMPA [9]; Acceptor Concentration (uM) – ELSD Detection / [row 2], ELSD Detection): 98.9 µM
- Acceptor Concentration (PAMPA [9]; Acceptor Concentration (uM) – ELSD Detection / [row 3], ELSD Detection): 102 µM
- Acceptor Concentration (PAMPA [9]; Acceptor Concentration (uM) – ELSD Detection / [row 4], ELSD Detection): 107 µM
- Acceptor Concentration (PAMPA [9]; Acceptor Concentration (uM) – ELSD Detection / [row 5], ELSD Detection): 98.1 µM
- Acceptor Concentration (PAMPA [9]; Acceptor Concentration (uM) – ELSD Detection / [row 6], ELSD Detection): 113 µM
- Acceptor Concentration (PAMPA [9]; Acceptor Concentration (uM) – ELSD Detection / [row 7], ELSD Detection): 118 µM
- Acceptor Concentration (PAMPA [9]; Acceptor Concentration (uM) – ELSD Detection / [row 8], ELSD Detection): 122 µM
- Acceptor Concentration (PAMPA [9]; Acceptor Concentration (uM) – ELSD Detection / [row 9], ELSD Detection): 113 µM
- Acceptor Concentration (PAMPA [9]; Acceptor Concentration (uM) – ELSD Detection / [row 10], ELSD Detection): 109 µM
- Acceptor Concentration (PAMPA [9]; Acceptor Concentration (uM) – UV Detection / [row 1], UV Detection): 98.5 µM
- Acceptor Concentration (PAMPA [9]; Acceptor Concentration (uM) – UV Detection / [row 2], UV Detection): 103 µM
- Acceptor Concentration (PAMPA [9]; Acceptor Concentration (uM) – UV Detection / [row 3], UV Detection): 111 µM
- Acceptor Concentration (PAMPA [9]; Acceptor Concentration (uM) – UV Detection / [row 4], UV Detection): 108 µM
- Acceptor Concentration (PAMPA [9]; Acceptor Concentration (uM) – UV Detection / [row 5], UV Detection): 103 µM
- Acceptor Concentration (PAMPA [9]; Acceptor Concentration (uM) – UV Detection / [row 6], UV Detection): 95 µM
- Acceptor Concentration (PAMPA [9]; Acceptor Concentration (uM) – UV Detection / [row 7], UV Detection): 109 µM
- Acceptor Concentration (PAMPA [9]; Acceptor Concentration (uM) – UV Detection / [row 8], UV Detection): 114 µM
- Acceptor Concentration (PAMPA [9]; Acceptor Concentration (uM) – UV Detection / [row 9], UV Detection): 114 µM
- % recovery (PAMPA [10]; Well 1 / %R, Well 1): 90%
- % recovery (PAMPA [10]; Well 2 / %R, Well 2): 90% and 92%
- % recovery (PAMPA [10]; Well 3 / %R, Well 3): 93% and 90%
- % recovery (PAMPA [10]; Well 4 / %R, Well 4): 92%
- % recovery (PAMPA [10]; Well 5 / %R, Well 5): 88% and 89%
